# According to patent US20230050846A1, “TREATMENT OF HEPATIC AND CARDIOVASCULAR DISORDERS” (LIFESEARCH, priority 2019, published 2023):
# How the values were obtained:
# human F1Fo-ATPase = target: T1, human F1Fo-ATPase (Homo sapiens, UniProt P06576); assay: F1-ATPase activity assay (NADH-coupled, purified enzyme); assay type: biochemical; details: 1 μM
# T1 construct: Human F1Fo-ATPase was purified from HepG2 cells by immunocapture; endogenous in cells; host or cells: HepG2 cells; complex isolated by immunocapture with anti-ATP synthase antibody 12F4AD8AF8 (#ab109867, Abcam)
# Text: The mature human IF1 protein (SEQ ID NO: 5) was chemically synthesized by GenScript (Piscataway, N.J., USA) at >80% purity. The peptides derived from the mature human IF1 sequence (IF1-1-60, IF1-10-56, IF1-10-47) were produced by BachemAG (Bubendorf, Switzerland) with >90% purity.
# Human F1Fo-ATPase was purified from HepG2 cells by immunocapture using mouse monoclonal anti-ATP synthase antibody (12F4AD8AF8, #ab109867, Abcam) according to manufacturer's instructions.
# Measurement of F1-ATPase activity was assayed as previously described. Briefly, 10 μg of F1Fo-ATPase was prepared into 50 μL of activity assay buffer (10 mM HEPES, 150 mM NaCl, 5 mM KCl, 5 mM MgCl2, 0.5 mM phosphoenolpyruvate, 250 μM NADH, 100 μM ATP, 20 U lactate dehydrogenase, 120 U pyruvate kinase). The mixture was incubated at 37° C. for 30 min. Then the F1-ATPase activity was measured in a 96-well microplate by adding 5 μL of the mixture (1 μg of F1Fo-ATPase per point) per well to 200 μL of activity assay buffer at 37° C., and by adding 5 μL of buffer with or without peptide (1 μM each). The reduction in the absorbance of NADH was measured at 340 nm for 5 min with a Varioskan™ Flash Multimode Reader (Thermo Fisher Scientific). A slope was calculated for each well and the results expressed as a percentage of the control slope.
# HepG2 cells = assay: HDL endocytosis assay in hepatocytes; assay type: cell-based, human; details: for effect on HDL endocytosis: 1 μM, HDL-Alexa568 50 μg/mL, 25 min, abolished by IF1 1 μM
# Description: HepG2 cells were seeded on 96-well plates at 50,000 cells/well. HDL3 (d 1.12-1.21) were isolated from plasma of healthy human donors and referred to as HDL. HDL was fluorescently labeled with AlexaFluor®568 dye (A10238, Thermofisher Scientific) according the instructions of manufacturer. 1 h30 before the assay, the cells were serum starved for 1 h30 in order to stabilize nucleotide secretion. Cells were incubated with inhibitors (H49K, 1 μM) for 10 min before treatment with the different peptides (1 μM) or apoA-I (10 μg/ml) purified from human plasma. 5 min after peptide treatment, endocytosis was initiated by 50 μg/mL of AlexaFluor568®-labelled HDL. The same experiment was performed with a […] excess of unlabelled HDL (2.5 mg/mL) to determine the nonspecific fluorescence signal. After 25 min at 37° C., cells were then washed in serum-free DMEM and extracellular membrane-bound HDL was disassociated by incubating cells at 4° C. in serum-free DMEM for 90 min. Following washes, cells were lysate in NaOH 0.1M SDS 1% during 2 h, lysates were transferred in a black 96-wells plate and fluorescence was recorded at 568 nm (Varioscan flash). Fluorescence for each condition was substrate with the value obtained in unlabelled HDL condition, and results were expressed as the fold change as compared with the basal condition (untreated cells).
# [1] = target: T2, ecto-F1-ATPase (HepG2 cells) (Homo sapiens, UniProt P06576); assay: ecto-F1-ATPase activity: extracellular ADP content, luciferin-luciferase assay; assay type: cell-based; details: HepG2, 5 min, apoA-I 10 μg/mL; effect blunted by IF1
# T2 construct: host or cells: HepG2
# Description: The human hepatocyte cell line HepG2 was obtained from the American Type Culture Collection (#HB-8065). HepG2 were cultured in Dulbecco's Modified Eagle's Medium (DMEM)—high glucose (D0822, Sigma-Aldrich) supplemented with 10% fetal bovine serum (10270098, Life technologies), 1% Penicillin-Streptomycin solution (P0781, Sigma-Aldrich). HepG2 cells were seeded on 24-well plates at 75,000 cells/well (Day 0). After 24 hours of growing, cells were serum starved for 24 h in order to synchronize cell cycles (Day 1) and then replaced additional 24 h in complete cell growth medium (Day 2). On day 3, cells were washed and equilibrated in fresh DMEM—high glucose without red phenol for 1 h (D1145, Sigma-Aldrich).
# The cells were then treated 5 min with different concentration of peptide of formula (I) (0.1 to 5 μM), the peptide of formula (II) (1 μM), SCR (1 μM), SCR-K-16 (1 μM) or apoA-I (10 μg/mL) purified from human plasma.
# Specific ecto-F1-ATPase activation was assessed in the presence of IF1 protein (1 μM), a natural inhibitor of F1-ATPase that interacts with the β-subunit to inhibit the ATP hydrolysis activity [5].
# Supernatants were then collected and centrifuged (10,000 g, 5 min, 4° C.) and processed for ADP and ATP measurement. For ADP measurement, ADP was converted into ATP in 150 mM NaCl, 5 mM KCl, 2 mM MgCl2, pH 7.5 buffer containing 0.5 mM phosphoenolpyruvate (PEP) and pyruvate kinase (PK, 6 U per point for 15 min at 37° C.). For ATP measurement, 100 μl of sample was analyzed using the ATP bioluminescence assay kit CLS II (Roche Diagnostics). Samples were added to the ATP assay mixture and luminescence was measured in a microplate reader Infinite F500 (Tecan, Switzerland) for 1000 ms. The ATP standard curve was produced in the same medium as the samples and in the 10^−5 to 10^−10 M concentration range. The ADP concentration was then calculated as the ATP concentration following ADP conversion minus the basal ATP concentration. Data are expressed as nanomoles of ADP produced.
# HUVEC cells = assay: Endothelial nitric oxide (NO) production, DAF-FM-DA probe; assay type: cell-based, human; details: apoA-I; abolished by IF1
# Description: Nitric oxide (NO) was detected using a DAF-FM-DA probe (D2321, Sigma-Aldrich) which forms fluorescent benzotriazole when it reacts with NO. HUVEC cells (PromoCell #C-12203) were seeded in 96-well plates (10,000 cells per well) and cultured in endothelial cell basal medium 2 (PromoCell #C-22211) supplemented with GM2 supplement Mix (PromoCell #C-39211), until 80-90% confluence. The medium was then replaced with M-199 without serum for 4 h, and the cells were incubated for 45 min with DAF-FM-DA (5 μM) diluted in PBS. Cells were treated with increasing concentrations of the different peptides or apoA-I (10 μM) purified from human plasma or histamine (1 mM) as positive control. In another set of experiments, cells were incubated with inhibitors (IF1, 1 μM) for 10 min before treatment with peptides or apoA-I. The fluorescence was recorded for 30 min (λex=495 nm, λem=515 nm) with a Tecan Flash Multimode Reader (Thermo Fisher Scientific). Fluorescence for each condition was compared with the value obtained in untreated cells, and results were expressed as the fold change as compared with the basal condition (untreated cells).
stimulation of F1-ATPase activity (human F1Fo-ATPase),extracellular ADP concentration [1],Substance,effect on HDL endocytosis (HepG2 cells),NO production by endothelial cells (HUVEC cells),"stimulation of HDL endocytosis compared to non-stimulated cells (HepG2 cells; apoA-I 10 μg/mL, abolished by IF1)"
no effect,,"CH3CO-[SEQ ID NO: 2]-NH2 (Ac-GEAKSYAEKGEARGERGTKGEFRIFKREATD-NH2) [SCR, reference compound]",no effect,,
,increased,"apoA-I: Apolipoprotein A-I purified from human plasma, known F1-ATPase activator, positive control [reference compound]",,stimulated,about 45%
no effect,,"CH3CO-[SEQ ID NO: 2]-K-[palmitoyl]-NH2 (Ac-GEAKSYAEKGEARGERGTKGEFRIFKREATD-{K(palmitoyl)-NH2}) [SCR-K-C16, palmitoylated scramble peptide, negative control, reference compound]",no effect,,
